Reference: US20260240959A1, “METHODS FOR IN VIVO EDITING OF KLKB1” (INTELLIA THERAPEUTICS, INC., priority 2022, published 2026)

Legend:
[1] = cited from earlier work
[2] = Half-lives of HAE prophylactic products (from product sources); details: for half-life: human
[3] = Plasma pharmacokinetics of LP01 (LC-MS/MS) in HAE patients; type: in vivo, human
Protocol: Blood samples were collected to assess plasma concentration time profiles pre-infusion, during the infusion period, and at the end of the infusion period. Post infusion samples were collected at predefined time points as indicated in the graph (FIG. 37). LP01 (Lipid A) was quantified using liquid chromatography with tandem mass spectrometry (LC-MS/MS) methods. Plasma samples were evaluated using validated methods following regulatory guidelines.

Compound | Half Life (t1/2) [1] | half-life [2] | half-life ([3]; human, single dose IV infusion of NTLA-2002 25, 50 or 75 mg, range of cohort means, read-out: mean t1/2) | decline below limit of quantification by ([3]; single dose IV infusion of NTLA-2002) | Estimated washout for (5 half-lives) [2]
C#C[C@]1(O)CC[C@H]2[C@@H]3CCC4=Cc5oncc5C[C@]4(C)[C@H]3CC[C@@]21C [Danocrine, Danazol, reference compound] | 9.7 h | 48.5 h | – | – | –
CCCCC/C=C\C/C=C\CCCCCCCC(=O)OCC(COC(=O)CCC(OCCCCCCCC)OCCCCCCCC)COC(=O)OCCCN(CC)CC (centres unmarked) [LP01, (9Z,12Z)-3-((4,4-bis(octyloxy)butanoyl)oxy)-2-((((3-(diethylamino)propoxy)carbonyl)oxy)methyl)propyl octadeca-9,12-dienoate] | – | – | 16.8 to 21.3 h | ≤ 15 days | –
N#Cc1cccc([C@@H](NCC2CC2)c2ccc(F)c(NC(=O)c3cc(C(F)(F)F)nn3-c3cccc(CN)c3)c2)c1 [Orladeyo, Berotralstat, reference compound] | 93 h | 465 h | – | – | –
C[C@]12COC(=O)C[C@@H]1CC[C@@H]1[C@@H]2CC[C@@]2(C)[C@H]1CC[C@]2(C)O [Oxandrin, Oxandrolone] | – | 66.5 h | – | – | –
Cinryze: C1 Esterase Inhibitor [Human], HAE prophylactic product | 56 to 62 h | – | – | – | 310 hours = ~13 days
Haegarda: C1 Esterase Inhibitor [Human], HAE prophylactic product | 69 h | – | – | – | 345 hours = ~14.5 days
